The values that follow come from the COVID Moonshot data (paper PMC11187573), “Identification of SARS-CoV-2 Mpro inhibitors through deep reinforcement learning for de novo drug design and computational chemistry approaches” (RSC Medicinal Chemistry, 2024).

Each structure is given as a SMILES string.

One experiment concerns the target SARS-CoV-2 Main Protease (SARS-CoV-2) (UniProt P0DTD1).
Details: not given
A word on the IC50: it is the concentration at which inhibition is half-maximal. Lower therefore signals inhibition by little substance. On to `O=C(Cc1cccc(Cl)c1)Nc1nnc2ccccn12`, for which the IC50 was 93.9 µM.
As to `CCc1cc(F)ccc1-c1cc(Cl)cc(CC(=O)Nc2cnccc2C)c1`, the IC50 was 26 µM.
For the molecule `Cn1c(C(NC(=O)Cc2cc3ccccc3[nH]2)c2cccc(Cl)c2)nc2ccccc21` (stereo not given), the IC50 came out at 31.4 µM.
On the same count and under the same terms, for `O=C(Cc1cccc(Cl)c1)Nc1[nH]nc2cccc(F)c12` the value was 81.8 µM; for `O=C(Cc1cc(Cl)cc(Cc2ccn[nH]2)c1)Nc1cncc2ccccc12`, 9.39 µM.
The molecule `O=C1C(=O)N(Cc2ccccc2)c2ccc([N+](=O)[O-])cc21` had an IC50 of 26.9 µM.
Molecule `O=C(Nc1cncc2ccccc12)C1=CCCc2ccc(Cl)cc21` gave an IC50 of 0.0811 µM.
The molecule `Cc1ccncc1NC(=O)Cc1cc(Cl)cc(CNS(C)(=O)=O)c1` came in with an IC50 of 32.2 µM.
In turn, `CC(C)(C)c1ccc(N(C(=O)c2cn[nH]c2)C(C(=O)NCCc2cccc(F)c2)c2cccnc2)cc1` (stereo not given) returned an IC50 of 4.84 µM.
`Cc1ccncc1NC(=O)Cc1cc(Cl)cc(OC2COC2)c1` showed an IC50 of 15.3 µM.
On to `O=C(Cc1cncc2ccccc12)Nc1cc(Cl)cc(OC2CCC(=O)N2)c1` (stereo not given), for which the IC50 came out at 19.4 µM.
In turn, `O=C(Cc1cccc(Cl)c1)Nc1n[nH]c2ccc(F)cc12` registered an IC50 of 88.6 µM.
Regarding `C=CC(=O)N(c1ccc(I)cc1)C(C(=O)Nc1ccc(Cl)cc1)c1cncnc1` (stereo not given), the IC50 is 2.75 µM.
For the molecule `O=C(c1cc(=O)cc[nH]1)N1CCN(c2cccc(Cl)c2)CC1`, the IC50 was 58.9 µM.
`O=C(COc1cccc(Cl)c1)Nc1cncc2ccccc12` registered an IC50 of 6.02 µM.
`CC(C)CCN1C(=O)C(=O)c2cc(Br)ccc21` gave a half-inhibitory concentration (IC50) of 24.3 µM.
With `Cc1ccncc1N1CCC(c2cccc(Cl)c2)C1=O` (stereo not given), the IC50 is 12.9 µM.
`COc1ccccc1OCCC(=O)Nc1cncc2ccccc12` showed an IC50 of 85.4 µM.
`Cc1nc(CN2C(=O)C(=O)c3cc(Br)ccc32)cs1`: the IC50 turned out to be 18 µM.
The same measure, in the same setting: for `C=CC(=O)N(c1cc(C(C)(C)C)on1)C(C(=O)NCCc1cccc(F)c1)c1cncc(C#N)c1` (stereo not given) the value was 10.6 µM.
For the molecule `COC(=O)C(C(=O)Nc1cnccc1C)c1cccc(Cl)c1` (stereo not given), the IC50 was 17.1 µM.

The same experiment, now with this note: 50.0 µM.
Usually inhibition stands for the percentage by which the read-out fell short of the control. A higher inhibition goes with a response far below the control. Turning to `Cc1ccncc1NC(=O)Cc1cc(Cl)cc(NC2CCCC2O)c1` (stereo not given), the inhibition worked out at 61.5%.
As for `N#CC(C(=O)Nc1ccccc1)C(=O)c1cccs1` (stereo not given), the inhibition is 0%.
For `CCN(c1ccccc1)S(=O)(=O)c1ccc(OC)c(NC(=O)CCl)c1`, the inhibition amounted to 61.2%.
`Cc1ccncc1NC(=O)Cc1cc(Cl)cc(OCc2nnc(C3CCCCC3)o2)c1`: the inhibition amounted to 100%.
The molecule `O=C(Cc1cccc(Cl)c1)N[C@H]1CCNC1=O` (stereo in doubt) came in with an inhibition of 0%.
`CC(C)(C)N1C=CN(C(C)(C)C)[CH]1[Au][Cl]` yielded an inhibition of 100%.
For the molecule `C=C1CCC[C@H]2[C@](C)(CC3=C(O)C(=O)C=C(OC)C3=O)[C@@H](C)CC[C@]12C` (stereo in doubt), the inhibition was 2.35%.
Regarding `OC[C@H]1O[C@H]([S][Au])[C@H](O)[C@@H](O)[C@@H]1O` (stereo in doubt), the inhibition was 83.1%.
Still for that read-out and setting: under `O=c1cc(-c2ccc(OCc3ccccc3)cc2)oc2ccccc12` stands 35.9%; under `O=C1OC(c2cccs2)=N/C1=C\c1ccc(N2CCOCC2)s1`, 91.7%; under `COc1ccc2c(=O)cc(-c3cc(OCc4ccccc4)ccc3OC)oc2c1`, 1.98%.
`Cc1cc2c(c(O)c1-c1c(C)cc(O)c3c1C(=O)C=CC3=O)C(=O)C=CC2=O` had an inhibition of 100%.
With `Cc1ccncc1NC(=O)Cc1cc(Cl)cc(OCCN2CCOCC2C)c1` (stereo not given), the inhibition was found to be 23.9%.
`COc1cccc(C2=N/C(=C/c3sccc3C)C(=O)O2)c1` had an inhibition of 77.6%.
The same measure, in the same setting: for `COc1ccc2c(=O)cc(-c3ccc(OCc4ccccc4)cc3)oc2c1` the value was 10.7%; for `CC(C)(C)c1ccc(N(C(=O)c2cnc[nH]2)C(C(=O)NCCc2cccc(F)c2)c2cccnc2)cc1` (stereo not given), 100%; for `O=C(CN(C(=O)Cc1cccnc1)c1ccc(-c2ncccn2)cc1)N1CCNCC1`, 0%.
The molecule `CN(CC(=O)Nc1ccccc1Br)C(=O)CCl` displayed an inhibition of 52.3%.
Take `CC(=O)O[C@@H]1OC2OC(=O)[C@H](C)C3=C([C@@]4(C)CCCC(C)(C)C4)CCC1C32` (stereo in doubt): the inhibition came to 0%.
Molecule `CC(C)C1=C(O)C(=O)C2=C(CC[C@H]3C(C)(C)CCC[C@]23C)C1=O` (stereo in doubt) displayed an inhibition of 10.2%.
As for `Cc1cc(O)c2c3c(ccc2c1)C(=O)c1c(O)cccc1C3=O`, the inhibition worked out at 5%.
`CC(C)(C)C(=O)C(C#N)C(=O)Nc1ccc(Cl)cc1` (stereo not given) had an inhibition of 0%.
In turn, `COc1ccc(OCc2ccccc2)cc1-c1cc(=O)c2ccccc2o1` registered an inhibition of 7.52%.
As for `CC(C)(C)c1ccc(N(C(=O)c2cn[nH]c2)C(C(=O)NCCc2cccc(F)c2)c2cccnc2)cc1` (stereo not given), the inhibition turned out to be 100%.
Still for that read-out and setting: under `COc1cc2c(c3ccccc13)OC(C)(C)CC2Oc1cc2c(cc1C)C(=O)c1ccccc1C2=O` (stereo not given) stands 4%; under `COc1ccc2c(=O)c(O)c(-c3ccc(OCc4ccccc4)c(OCc4ccccc4)c3)oc2c1`, 14.1%; under `O=C(c1cc(=O)[nH]c2ccccc12)N1CCN(Cc2cccc(Cl)c2)CC1`, 50.9%.
`O=C(Nc1cncc2ccccc12)C1CCOc2ccc(Br)cc21` (stereo not given): the inhibition stood at 90.6%.
Turning to `CC[P](CC)(CC)=[Au][S][C@@H]1O[C@H](COC(C)=O)[C@@H](OC(C)=O)[C@H](OC(C)=O)[C@H]1OC(C)=O` (stereo in doubt), the inhibition was 100%.
